Literature values as cited in patent US10858575B2, “Temperature-stable corrosion inhibitor compositions and methods of use” (ChampionX USA Inc., priority 2017, dated 2020).

Details: at 20° C.

| Compound | vapor pressure [mm Hg] |
| --- | --- |
| COCCOCCO [diethylene glycol methyl ether] | 0.2 |
| CCOCCOCCO [diethylene glycol ethyl ether] | 0.12 |
| CCCCCCOCCOCCO [diethylene glycol hexyl ether] | 0.001 |
| CCCOC(C)COC(C)CO (centres unmarked) [dipropylene glycol propyl ether] | 0.08 |
| COCC(C)O (centres unmarked) [propylene glycol methyl ether] | 8.7 |
| CCOCCO [ethylene glycol ethyl ether] | 3.8 |
| CCCOCC(C)O (centres unmarked) [propylene glycol propyl ether] | 4.5 |
| CCCCOCCO [ethylene glycol butyl ether] | 10 |
| COC(C)COC(C)CO (centres unmarked) [dipropylene glycol methyl ether] | 0.28 |
| CCCCOCC(C)O (centres unmarked) [propylene glycol butyl ether] | 0.85 |
| CCCCCCOCCO [ethylene glycol hexyl ether] | 0.05 |
| CCCCOCCOCCO [diethylene glycol butyl ether] | 30 |
| CCCCOC(C)COC(C)COC(C)CO (centres unmarked) [tripropylene glycol butyl ether] | 0.002 |

Details: octanol/water

| Compound | LogP |
| --- | --- |
| O=C1CCCO1 | −0.57 |
